# Source: patent US20210188856A1, “CRYSTAL FORM OF HYDROCHLORIDE OF PYRAZOLOHETEROARYL DERIVATIVE AND PREPARATION METHOD” (JIANGSU HENGRUI MEDICINE CO., LTD., priority 2018, published 2021)
# Legend:
# Log D = type: physicochemical
# CYP3A4 = biological target: T1, CYP3A4 (Homo sapiens, UniProt P08684); experiment: Inhibition of midazolam metabolite site of CYP3A4 in human liver microsome; type: in vitro ADME
# T1 construct: CYP3A4 in human liver microsome; tissue Corning Gentest; host or cells: human liver microsomes
# Procedure: The effect of the compound represented by formula (I) on the enzyme activity of midazolam metabolite site of CYP3A4 in human liver microsome was determined by the following experimental method:
# (§1) 100 mM PBS buffer was formulated, which was then used to formulate 2.5 mg/mL microsome solution and 5 mM NADPH solution. The 5× concentration of the compound working solution was diluted with PBS gradient (150, 50, 15, 5, 1.5, 0.15, 0.015, 0 μM). The 5× concentration of ketoconazole working solution was diluted with PBS gradient (150, 50, 15, 5, 1.5, 0.15, 0.015, 0 μM). […] working solution was diluted with PBS to a concentration of 50 μM.
# 20 μL of the 2.5 mg/mL microsome solution, […], 20 μL of MgCl2 solution and 20 μL of the compound working solution (150, 50, 15, 5, 1.5, 0.15, 0.015, 0 μM, different reaction systems for each concentration) were taken respectively and mixed well. For the positive control group, the compound was replaced with the same concentration of ketoconazole. The mixture together with the 5 mM NADPH solution was pre-incubated at 37° C. for 5 minutes. After 5 minutes, 20 μL of NADPH was added to each well, the reaction was started and incubated for 30 minutes. […] 80 μL of the supernatant was taken and analyzed by LC-MS/MS.
# The data was calculated by Graphpad Prism to obtain the IC50 value of the compound on the midazolam metabolite site of CYP3A4.
# CYP2D6 = biological target: T2, CYP2D6 (Homo sapiens, UniProt P10635); experiment: Inhibition of CYP2D6 in human liver microsome; type: in vitro ADME
# T2 construct: CYP2D6 in human liver microsome; tissue Corning Gentest; host or cells: human liver microsomes
# Procedure: The effect of the compound represented by formula (I) on the enzyme activity of CYP2D6 in human liver microsome was determined by the following experimental method:
# as §1, with “quinidine” for “ketoconazole”
# 20 μL of the 2.5 mg/mL microsome solution, 20 μL of the 50 μM […] working solution, 20 μL of MgCl2 solution and 20 μL of the compound working solution (150, 50, 15, 5, 1.5, 0.15, 0.015, 0 μM, different reaction systems for each concentration) were taken respectively and mixed well. For the positive control group, the compound was replaced with the same concentration of quinidine. The mixture together with the 5 mM NADPH solution was pre-incubated at 37° C. for 5 minutes. After 5 minutes, 20 μL of NADPH was added to each well, the reaction was started and incubated for 30 minutes. […] 80 μL of the supernatant was taken and analyzed by LC-MS/MS.
# The data were calculated by Graphpad Prism to obtain the IC50 value of the compound on the metabolite site of CYP2D6.
# T1 sequence (P08684 whole entry): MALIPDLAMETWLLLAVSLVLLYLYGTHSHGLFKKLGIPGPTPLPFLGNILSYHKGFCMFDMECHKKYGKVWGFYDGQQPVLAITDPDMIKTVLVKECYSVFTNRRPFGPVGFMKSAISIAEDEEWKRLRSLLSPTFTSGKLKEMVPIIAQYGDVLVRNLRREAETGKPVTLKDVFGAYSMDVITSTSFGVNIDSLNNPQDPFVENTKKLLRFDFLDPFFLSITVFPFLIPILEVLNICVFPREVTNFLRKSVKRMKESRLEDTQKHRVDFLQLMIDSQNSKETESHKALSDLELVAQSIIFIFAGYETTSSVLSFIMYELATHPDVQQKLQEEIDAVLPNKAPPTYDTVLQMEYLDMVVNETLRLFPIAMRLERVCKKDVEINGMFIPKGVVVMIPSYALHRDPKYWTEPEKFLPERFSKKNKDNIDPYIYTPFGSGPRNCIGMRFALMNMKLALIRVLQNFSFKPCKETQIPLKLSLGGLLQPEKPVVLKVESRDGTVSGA
# T2 sequence (P10635 whole entry): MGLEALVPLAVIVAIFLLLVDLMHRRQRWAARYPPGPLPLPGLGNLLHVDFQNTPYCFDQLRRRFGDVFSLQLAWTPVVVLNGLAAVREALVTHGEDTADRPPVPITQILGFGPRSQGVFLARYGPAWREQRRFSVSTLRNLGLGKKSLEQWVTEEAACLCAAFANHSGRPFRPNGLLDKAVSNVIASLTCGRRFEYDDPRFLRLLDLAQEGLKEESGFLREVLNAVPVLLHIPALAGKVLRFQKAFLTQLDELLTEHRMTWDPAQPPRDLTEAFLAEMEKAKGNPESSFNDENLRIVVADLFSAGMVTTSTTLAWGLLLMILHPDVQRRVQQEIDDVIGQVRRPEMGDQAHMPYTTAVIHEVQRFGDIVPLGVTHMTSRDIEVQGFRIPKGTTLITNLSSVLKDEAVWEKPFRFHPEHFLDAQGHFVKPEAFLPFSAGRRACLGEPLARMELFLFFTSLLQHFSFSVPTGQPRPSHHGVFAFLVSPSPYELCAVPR
smiles,measurement,setting,value
"CCCCOc1nc(N)c2cnn(Cc3ccc(CN4CCCC4)cc3)c2n1 [compound represented by formula (I), 6-Butoxy-1-(4-(pyrrolidin-1-ylmethyl)benzyl)-1H-pyrazolo[3,4-d]pyrimidin-4-amine]",Log D,Log D,1.21
same,inhibitory effect on midazolam metabolic site of CYP3A4 (in words),CYP3A4,no inhibitory effect
same,IC50,CYP3A4; midazolam probe,14 µM
same,inhibitory effect against CYP2D6 (in words),CYP2D6,no inhibitory effect
same,IC50,CYP2D6; dextromethorphan probe,> 30 µM
